In one experiment the target is T1, RORγ-LBD (Homo sapiens, UniProt P51449).
T1 construct: made in house; host or cells: SF9 cells (baculovirus)
T1 sequence (P51449 269-508 limits assumed): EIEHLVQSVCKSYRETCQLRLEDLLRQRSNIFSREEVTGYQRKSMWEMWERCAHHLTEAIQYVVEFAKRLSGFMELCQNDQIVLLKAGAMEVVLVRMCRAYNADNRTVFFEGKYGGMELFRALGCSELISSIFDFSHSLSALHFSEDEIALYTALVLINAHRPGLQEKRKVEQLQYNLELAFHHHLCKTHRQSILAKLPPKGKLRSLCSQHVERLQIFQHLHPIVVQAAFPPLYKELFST
The experiment in a line: RORγ-Ligand Binding Domain (LBD) TR-FRET Assay.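 On TR-FRET Assay Max Response: 665/615 nm ratio relative to signal without ursolic acid or compound set at 100.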 The experiment is classed as biochemical. An outline of the steps:
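Compounds, diluted in DMSO and then in assay buffer (1% DMSO final), were combined with His-tagged RORγ-LBD lysate at roughly 3 nM final and a 200 nM biotinylated SRC1 LXXLL peptide. Ursolic acid was included at 2 μM final. Coactivator recruitment was detected by TR-FRET.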

Another experiment has as its target T2, Gal4-RORγ-LBD (Homo sapiens, UniProt P51449).
T2 construct: expressed in transfected cells; host or cells: HEK-293 cells (pcDNA3.1neo plasmid)
T2 sequence (P51449 269-508 limits assumed): T1 sequence (P51449 269-508 limits assumed)
Description: Gal4-RORγ Luciferase Reporter Assay in HEK-293T Cells. The experiment is classed as cell-based. To be noted: HEK-293 cells, 2 μM ursolic acid. An outline of the steps:
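HEK-293 cells were transiently co-transfected with Gal4-RORγ-LBD and pGL4.31 Gal4-luciferase, with ursolic acid added at 2 μM final. Compounds were incubated overnight at 37° C. in 0.2% DMSO and luminescence read with One-Glo. Max Response is the upper plateau of a 4-parameter logistic fit, with signal lacking ursolic acid or compound set to 100.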
For orientation: In a reporter assay the amount or activity of a reporter protein is the signal.

As usually defined, the EC50 is the midpoint of the concentration-response curve. For `O=C(O)[C@@]1(C[C@H]2CN(S(=O)(=O)c3cccc(C(F)(F)F)c3)c3cc(-c4cc(F)ccc4F)ccc3O2)CCNC1=O` [Compound 77B, (R)-3-(((S)-6-(2,5-difluorophenyl)-4-((3-(trifluoromethyl)phenyl)-sulfonyl)-3,4-dihydro-2H-benzo[b][1,4]oxazin-2-yl)methyl)-2-oxopyrrolidine-3-carboxylic acid], on RORγ-LBD, the EC50 was < 500 nM and the “TR-FRET Assay Max Response” value is reported as “*** (The symbol “***” indicates a value in the range of greater than 150 to 200)”. For the same compound, at Gal4-RORγ-LBD, the EC50 was < 500 nM and the “Gal4-RORγ Assay Max Response” value is “** (The symbol “**” indicates a value in the range of greater than 90 to 150)”.

In the case of `O=C(O)C1(C[C@H]2CN(S(=O)(=O)c3cccc(C(F)(F)F)c3)c3cc(-c4cccc(Cl)c4)ccc3O2)CCOCC1` [Compound 78A, (S)-4-((6-(3-chlorophenyl)-4-((3-(trifluoromethyl)phenyl)sulfonyl)-3,4-dihydro-2H-benzo[b][1,4]-oxazin-2-yl)methyl)tetrahydro-2H-pyran-4-carboxylic acid], at RORγ-LBD, the EC50 is < 500 nM and the “TR-FRET Assay Max Response” value was “** (The symbol “**” indicates a value in the range of greater than 90 to 150)”. For the same compound, on Gal4-RORγ-LBD, the EC50 is < 500 nM and the “Gal4-RORγ Assay Max Response” value is “** (The symbol “**” indicates a value in the range of greater than 90 to 150)”.

Consider `Cc1cc(Cl)cc(-c2ccc3c(c2)N(S(=O)(=O)c2cccc(C(F)(F)F)c2)C[C@H](CC2(C(=O)O)CCOCC2)O3)c1` [Compound 78B, (S)-4-((6-(3-chloro-5-methyl-phenyl)-4-((3-(trifluoromethyl)-phenyl)sulfonyl)-3,4-dihydro-2H-benzo[b][1,4]oxazin-2-yl)methyl)tetrahydro-2H-pyran-4-carboxylic acid], for which, on RORγ-LBD, the EC50 is < 500 nM and the “TR-FRET Assay Max Response” value is on record as “** (The symbol “**” indicates a value in the range of greater than 90 to 150)”. In addition, at Gal4-RORγ-LBD, the EC50 is < 500 nM and the “Gal4-RORγ Assay Max Response” value is “** (The symbol “**” indicates a value in the range of greater than 90 to 150)”.

With `O=C(O)C1(C[C@H]2CN(S(=O)(=O)c3cccc(C(F)(F)F)c3)c3cc(-c4cc(F)cc(F)c4Cl)ccc3O2)CCOCC1` [Compound 78C, (S)-4-((6-(2-chloro-3,5-difluoro-phenyl)-4-((3-(trifluoromethyl)-phenyl)sulfonyl)-3,4-dihydro-2H-benzo[b][1,4]oxazin-2-yl)methyl)tetrahydro-2H-pyran-4-carboxylic acid], on RORγ-LBD, the EC50 was < 500 nM and the “TR-FRET Assay Max Response” value was “** (The symbol “**” indicates a value in the range of greater than 90 to 150)”. For the same compound, on Gal4-RORγ-LBD, the EC50 is < 500 nM and the “Gal4-RORγ Assay Max Response” value is “*** (The symbol “***” indicates a value in the range of greater than 150 to 200)”.

Turning to `O=C(O)C1(C[C@H]2CN(S(=O)(=O)c3cccc(C(F)(F)F)c3)c3cc(-c4cc(F)ccc4Cl)ccc3O2)CCOCC1` [Compound 78D, (S)-4-((6-(2-chloro-5-fluoro-phenyl)-4-((3-(trifluoromethyl)-phenyl)sulfonyl)-3,4-dihydro-2H-benzo[b][1,4]oxazin-2-yl)methyl)tetrahydro-2H-pyran-4-carboxylic acid], on RORγ-LBD, the EC50 is < 500 nM and the “TR-FRET Assay Max Response” value was “** (The symbol “**” indicates a value in the range of greater than 90 to 150)”. Also, on Gal4-RORγ-LBD, the EC50 was < 500 nM and the “Gal4-RORγ Assay Max Response” value was “*** (The symbol “***” indicates a value in the range of greater than 150 to 200)”.

As for `O=C(O)C1(C[C@H]2CN(S(=O)(=O)c3cccc(C(F)(F)F)c3)c3cc(-c4cc(F)cc(Cl)c4)ccc3O2)CCOCC1` [Compound 78E, (S)-4-((6-(3-chloro-5-fluoro-phenyl)-4-((3-(trifluoromethyl)-phenyl)sulfonyl)-3,4-dihydro-2H-benzo[b][1,4]oxazin-2-yl)methyl)tetrahydro-2H-pyran-4-carboxylic acid], on RORγ-LBD, the EC50 is < 500 nM and the “TR-FRET Assay Max Response” value was “** (The symbol “**” indicates a value in the range of greater than 90 to 150)”. For the same compound, on Gal4-RORγ-LBD, the EC50 is < 500 nM and the “Gal4-RORγ Assay Max Response” value was “** (The symbol “**” indicates a value in the range of greater than 90 to 150)”.

For `O=C(O)C1(C[C@H]2CN(S(=O)(=O)c3cccc(C(F)(F)F)c3)c3cc(-c4cccc(Cl)c4F)ccc3O2)CCOCC1` [Compound 78F, (S)-4-((6-(3-chloro-2-fluoro-phenyl)-4-((3-(trifluoromethyl)-phenyl)sulfonyl)-3,4-dihydro-2H-benzo[b][1,4]oxazin-2-yl)methyl)tetrahydro-2H-pyran-4-carboxylic acid], at RORγ-LBD, the EC50 was < 500 nM and the “TR-FRET Assay Max Response” value is recorded as “** (The symbol “**” indicates a value in the range of greater than 90 to 150)”. On Gal4-RORγ-LBD, the EC50 is < 500 nM and the “Gal4-RORγ Assay Max Response” value is listed as “** (The symbol “**” indicates a value in the range of greater than 90 to 150)”.

In the case of `Cc1cc(C)cc(-c2ccc3c(c2)N(S(=O)(=O)c2cccc(C(F)(F)F)c2)C[C@H](CC2(C(=O)O)CCOCC2)O3)c1` [Compound 78G, (S)-4-((6-(3,5-dimethylphenyl)-4-((3-(trifluoromethyl)phenyl)-sulfonyl)-3,4-dihydro-2H-benzo[b][1,4]oxazin-2-yl)methyl)tetrahydro-2H-pyran-4-carboxylic acid], on RORγ-LBD, the EC50 was < 500 nM and the “TR-FRET Assay Max Response” value is recorded as “** (The symbol “**” indicates a value in the range of greater than 90 to 150)”. For the same compound, at Gal4-RORγ-LBD, the EC50 is < 500 nM and the “Gal4-RORγ Assay Max Response” value is “** (The symbol “**” indicates a value in the range of greater than 90 to 150)”.

For `O=C(O)C1(C[C@H]2CN(S(=O)(=O)c3cccc(C(F)(F)F)c3)c3cc(-c4cccc(C(F)(F)F)c4)ccc3O2)CCOCC1` [Compound 78H, (S)-4-((6-(3-(trifluoromethyl)-phenyl)-4-((3-(trifluoromethyl)-phenyl)sulfonyl)-3,4-dihydro-2H-benzo[b][1,4]oxazin-2-yl)methyl)tetrahydro-2H-pyran-4-carboxylic acid], at RORγ-LBD, the EC50 is < 500 nM and the “TR-FRET Assay Max Response” value was “** (The symbol “**” indicates a value in the range of greater than 90 to 150)”. Also, on Gal4-RORγ-LBD, the EC50 was < 500 nM and the “Gal4-RORγ Assay Max Response” value is “* (The symbol “*” indicates a value in the range of 25 to 90)”.

With `C[C@H](CC(=O)O)[C@H]1CN(S(=O)(=O)c2cccc(C(F)(F)F)c2)c2cc(-c3cc(F)cc(F)c3Cl)ccc2O1` [Compound 80B, (R)-3-((S)-6-(2-chloro-3,5-difluorophenyl)-4-((3-(trifluoromethyl)phenyl)sulfonyl)-3,4-dihydro-2H-benzo[b][1,4]-oxazin-2-yl)butanoic acid], at RORγ-LBD, the EC50 was < 500 nM and the “TR-FRET Assay Max Response” value was “** (The symbol “**” indicates a value in the range of greater than 90 to 150)”. At Gal4-RORγ-LBD, the 50% effective concentration (EC50) was 500 to 5000 nM and the “Gal4-RORγ Assay Max Response” value is on record as “** (The symbol “**” indicates a value in the range of greater than 90 to 150)”.

With `C[C@@H](CC(=O)O)[C@H]1CN(S(=O)(=O)c2cccc(C(F)(F)F)c2)c2cc(-c3cc(F)cc(F)c3Cl)ccc2O1` [Compound 80C, (S)-3-((S)-6-(2-chloro-3,5-difluorophenyl)-4-((3-(trifluoromethyl)phenyl)sulfonyl)-3,4-dihydro-2H-benzo[b][1,4]-oxazin-2-yl)butanoic acid], on RORγ-LBD, the EC50 is < 500 nM and the “TR-FRET Assay Max Response” value is “*** (The symbol “***” indicates a value in the range of greater than 150 to 200)”. Also, on Gal4-RORγ-LBD, the EC50 was < 500 nM and the “Gal4-RORγ Assay Max Response” value is recorded as “** (The symbol “**” indicates a value in the range of greater than 90 to 150)”.

With `CC(=O)N[C@H]1C[C@@](C[C@H]2CN(S(=O)(=O)c3cccc(C(F)(F)F)c3)c3cc(-c4cc(F)cc(OC(F)F)c4)ccc3O2)(C(=O)O)C1` [Compound 84, (1s,3R)-3-acetamido-1-(((S)-6-(3-(difluoromethoxy)-5-fluorophenyl)-4-((3-(trifluoromethyl)phenyl)sulfonyl)-3,4-dihydro-2H-benzo[b][1,4]oxazin-2-yl)methyl)cyclobutane-1-carboxylic acid], at RORγ-LBD, the concentration for a half-maximal effect (EC50) is < 500 nM and the “TR-FRET Assay Max Response” value is listed as “** (The symbol “**” indicates a value in the range of greater than 90 to 150)”. Further, on Gal4-RORγ-LBD, the EC50 fell in the range of 500 to 5000 nM and the “Gal4-RORγ Assay Max Response” value is reported as “* (The symbol “*” indicates a value in the range of 25 to 90)”.

For the compound `CC(=O)N[C@H]1C[C@](C[C@H]2CN(S(=O)(=O)c3cccc(C(F)(F)F)c3)c3cc(-c4cc(F)cc(OC(F)F)c4)ccc3O2)(C(=O)O)C1` [Compound 85, (1r,3S)-3-acetamido-1-(((S)-6-(3-(difluoromethoxy)-5-fluorophenyl)-4-((3-(trifluoromethyl)phenyl)sulfonyl)-3,4-dihydro-2H-benzo[b][1,4]oxazin-2-yl)methyl)cyclobutane-1-carboxylic Acid], on RORγ-LBD, the EC50 was < 500 nM and the “TR-FRET Assay Max Response” value is reported as “** (The symbol “**” indicates a value in the range of greater than 90 to 150)”. Besides, at Gal4-RORγ-LBD, the EC50 is < 500 nM and the “Gal4-RORγ Assay Max Response” value is reported as “** (The symbol “**” indicates a value in the range of greater than 90 to 150)”.

The values are drawn from patent publication US10611740B2, “Aryl dihydro-2H-benzo[b][1,4]oxazine sulfonamide and related compounds for use as agonists of RORγ and the treatment of disease” (Lycera Corporation, priority 2015, dated 2020).
